Earlier results, collected in article PMC9540525 (Cancer, 2022).

Settings: dose escalation, cited from earlier work

Question: For `COc1ccc(-c2c(-c3ccc(C#N)c(F)c3)nc(N3CCC(N)CC3)n(C)c2=O)cc1F` [CC‐90011], which dose-limiting toxicity is on record?
Answer: The dose-limiting toxicity was “Thrombocytopenia was the only dose‐limiting toxicity reported”.

Question: What about the maximum tolerated dose (once per week) of the same molecule?
Answer: The maximum tolerated dose was 80 mg.

Question: What about the nontolerated dose (once per week) of the same molecule?
Answer: Its nontolerated dose is 120 mg.

Question: And the “recommended phase 2 dose (RP2D)” value (once per week)?
Answer: The value was 60 mg.
